Test results taken from patent US20240382435A1, “NON-CERULOPLASMIN BOUND COPPER LEVEL MONITORING” (ORPHALAN S.A., priority 2021, published 2024).

How the values were obtained:
[1] = system: patients with Wilson's Disease; assay: Clinical Global Impression of Change (CGIC) rating scale, clinical study of Example 3; format: in vivo, human; design: key: 7-point ordinal CGIC scale, 4 = no change; conditions: 7-point scale, ITT
Text: The CGIC rating scale, a 7-point ordinal score, was summarized by visit and treatment arm, and compared between arms using a stratified Cochran-Mantel-Haenszel test. The UWDRS, a continuous measure, was summarized by visit and treatment arm with descriptive statistics for absolute values and the changes from baseline.

[2] = system: patients with Wilson's Disease; assay: Baseline ALT, clinical study of Example 3; conditions: human, in vivo
Text: For change from baseline in laboratory measurements, “baseline” was defined as the last non-missing value during the Penicillamine Baseline Period, including unscheduled values.

[3] = system: patients with Wilson's Disease; assay: Serum NCC by copper speciation assay, randomized open-label clinical study (Example 3); format: in vivo, human
Description: 1.95 mL of rhodium internal standard solution containing 1% TMAH/1% EDTA was combined with 50 μL of human serum in a 15 mL polypropylene tube, capped and rotary mixed for at least 30 minutes. The processed sample was then analysed by ICP-MS on an Agilent 7900x inductively coupled plasma mass spectrometer.
The samples were defrosted and equilibrated to room temperature prior to use, and vortex mixed for approximately 5 seconds. 80 μL of 50 mM Tris-HCl (pH 7.4) buffer solution was combined with 20 μL of the clinical sample, blank or reference standard in a 0.5 mL Eppendorf tube (protein low bind). The diluted sample (100 μL) was transferred to a 0.3 mL polypropylene LC vial and sealed with a screw cap. An aliquot (50 μL) of each processed sample was then analysed by LC-ICP-MS on an Agilent 8900x inductively coupled plasma mass spectrometer.
Speciation analysis of Cu-containing species in the serum samples was performed by an anion exchange high performance liquid chromatography (AE HPLC) column (GE Healthcare MonoQ 5/50 GL, stationary phase (10 μm; 5×50 mm)) with an ammonium acetate gradient (0-250 mM) for 20 min. A flow rate of 1.0 mL/min was used. The chromatographic separation was performed at 25° C. Detection of the eluting Cu species was achieved using a collision/reaction cell Agilent Technologies 8900x ICP-MS spectrometer. The isotopes 63Cu and 65Cu were monitored in time resolved mode analysis using an integration time of 0.3 sec. 63Cu is the most abundant isotope and therefore this isotope was used to quantify copper by LC-ICP-MS.
Efficacy was assessed and treatments were monitored primarily using total copper analysis and a copper speciation assay as outlined in Examples 1 and 2 to determine serum NCC levels.
Eligible patients were clinically stable with their standard of-care D penicillamine chelation therapy for at least 1 year. These patients entered a 12-Week Penicillamine Baseline Period (from study visits on Day 1 to Week 12). During this time, all patients continued their current D penicillamine regimen under study conditions. At the end of the Penicillamine Baseline Period, patients who fulfilled the protocol definition of being adequately controlled and tolerating D penicillamine were randomized in a 1:1 ratio to receive either TETA 4HCl or to continue to receive D penicillamine during a 24-Week Post-Randomization Period (from study visits Week 12 to Week 36).
The primary efficacy endpoint was the serum NCC concentration (in μg/L) at Week 36. Serum NCC concentrations were determined using a copper speciation serum NCC assay using the methodology outlined in Examples 1 and 2. The primary efficacy analysis utilized the serum NCC values from all study visits that were analyzed using a restricted maximum likelihood based general linear model for correlated data. The correlation due to repeated measures was modelled by specifying the variance covariance matrix.

[4] = system: patients with Wilson's Disease; assay: 24-hour urinary copper excretion (UCE), clinical study of Example 3; format: in vivo, human; conditions: for 24-hour UCE value, mean / 24-hour UCE value, median / 24-hour UCE change from baseline, mean / 24-hour UCE change from baseline, median: ITT
Description: The number and the proportion of patients with a serum NCC value that matched the threshold (eg, serum NCC≤50 μg/L) were presented along with the 95% confidence interval of the proportion by visit and treatment arm. The proportions in the 2 arms were compared using Fisher's exact test. The same approach was applied on 24-hour UCE.

[5] = Week 4, Penicillamine Baseline Period (all patients on D-penicillamine)
[6] = Week 12, Penicillamine Baseline Period
[7] = Week 16, Post-Randomization Period
[8] = Week 24, Post-Randomization Period
[9] = Week 36, Post-Randomization Period
[10] = Day 1, 12-Week Penicillamine Baseline Period (all patients on D-penicillamine), ITT population, by arm
[11] = Week 4, Penicillamine Baseline Period (all patients on D-penicillamine), ITT
[12] = Week 8, Penicillamine Baseline Period (all patients on D-penicillamine), ITT
[13] = Week 12 (randomization), end of Penicillamine Baseline Period, ITT
[14] = Week 16, Post-Randomization Period, ITT
[15] = Week 20, Post-Randomization Period, ITT
[16] = Week 24, Post-Randomization Period, ITT
[17] = Week 28, Post-Randomization Period, ITT
[18] = Week 32, Post-Randomization Period, ITT
[19] = Week 36, Post-Randomization Period, ITT
[20] = Day 1, 12-Week Penicillamine Baseline Period (all patients on D-penicillamine), by arm
[21] = Week 12 (randomization), end of Penicillamine Baseline Period
[22] = Week 16, 24-Week Post-Baseline Period
[23] = Week 24, 24-Week Post-Baseline Period
[24] = Week 36, 24-Week Post-Baseline Period

## CC(C)(S)[C@@H](N)C(=O)O [D-Penicillamine, D-penicillamine]
[1]; Week 4, Penicillamine Baseline Period (all patients on D-penicillamine), 4 = no change
  Clinical Global Impression of Change Scale, mean: 4.1
[1]; [5]
  Clinical Global Impression of Change Scale, median: 4.0
[1]; [6]
  Clinical Global Impression of Change Scale, mean: 3.9
  Clinical Global Impression of Change Scale, median: 4.0
[1]; [7]
  Clinical Global Impression of Change Scale, mean: 4.1
  Clinical Global Impression of Change Scale, median: 4.0
[1]; [8]
  Clinical Global Impression of Change Scale, mean: 4.0
  Clinical Global Impression of Change Scale, median: 4.0
[1]; [9]
  Clinical Global Impression of Change Scale, mean: 4.0
  Clinical Global Impression of Change Scale, median: 4.0
[2]
  ALT, mean baseline: 35.6 U/L
[3]; [10]
  serum NCC value, mean: 63.9 µg/L
  serum NCC value, median: 61.0 µg/L
[3]; [11]
  serum NCC value, mean: 59.4 µg/L
  serum NCC value, median: 58.4 µg/L
[3]; [12]
  serum NCC value, mean: 71.9 µg/L
  serum NCC value, median: 69.0 µg/L
[3]; [13]
  serum NCC value, mean: 84.4 µg/L
  serum NCC value, median: 83.0 µg/L
[3]; Week 16, 24-Week Post-Randomization Period, ITT
  serum NCC value, mean: 82.8 µg/L
[3]; [14]
  serum NCC change from baseline, mean: -2.1 µg/L
  serum NCC change from baseline, median: 0.0 µg/L
  serum NCC value, median: 77.5 µg/L
[3]; [15]
  serum NCC change from baseline, mean: -12.3 µg/L
  serum NCC change from baseline, median: -11.6 µg/L
  serum NCC value, mean: 73.3 µg/L
  serum NCC value, median: 75.5 µg/L
[3]; [16]
  serum NCC change from baseline, mean: -16.9 µg/L
  serum NCC change from baseline, median: -20.0 µg/L
  serum NCC value, mean: 66.3 µg/L
  serum NCC value, median: 64.0 µg/L
[3]; [17]
  serum NCC change from baseline, mean: -10.6 µg/L
  serum NCC change from baseline, median: -17.5 µg/L
  serum NCC value, mean: 73.1 µg/L
  serum NCC value, median: 65.1 µg/L
[3]; [18]
  serum NCC change from baseline, mean: -19.1 µg/L
  serum NCC change from baseline, median: -21.7 µg/L
  serum NCC value, mean: 64.6 µg/L
  serum NCC value, median: 62.0 µg/L
[3]; Week 36 (primary efficacy endpoint), Post-Randomization Period, ITT
  serum NCC value, mean: 53.4 µg/L
[3]; [19]
  serum NCC change from baseline, mean: -29.7 µg/L
  serum NCC change from baseline, median: -34.0 µg/L
  serum NCC value, median: 51.0 µg/L
[3]; copper speciation assay, Table 4
  serum NCC levels, comparison between arms: very similar
[4]; [20]
  24-hour UCE value, mean: 568.3 μg/24 hours
  24-hour UCE value, median: 478.8 μg/24 hours
[4]; [5]
  24-hour UCE value, mean: 551.5 μg/24 hours
  24-hour UCE value, median: 594.6 μg/24 hours
[4]; [21]
  24-hour UCE value, mean: 539.1 μg/24 hours
  24-hour UCE value, median: 496.0 μg/24 hours
[4]; [22]
  24-hour UCE change from baseline, mean: −26.8 μg/24 hours
  24-hour UCE change from baseline, median: −60.3 μg/24 hours
  24-hour UCE value, mean: 512.1 μg/24 hours
  24-hour UCE value, median: 501.4 μg/24 hours
[4]; [23]
  24-hour UCE change from baseline, mean: 37.9 μg/24 hours
  24-hour UCE change from baseline, median: 23.4 μg/24 hours
  24-hour UCE value, mean: 546.8 μg/24 hours
  24-hour UCE value, median: 495.3 μg/24 hours
[4]; [24]
  24-hour UCE change from baseline, mean: 4.9 μg/24 hours
  24-hour UCE change from baseline, median: −4.7 μg/24 hours
  24-hour UCE value, mean: 519.7 μg/24 hours
  24-hour UCE value, median: 536.9 μg/24 hours
[4]; all time points analyzed after randomization, statistically significant differences
  24-hour UCE, comparison between treatment arms: higher levels of copper excretion
